Assay results from patent publication US20230114728A1 (Venatorx Pharmaceuticals, Inc., priority 2019, published 2023).

What follows are compounds tested against A. baumannii PBP1a (Acinetobacter baumannii, UniProt A0ABX6CK30) (assay: Bocillin-FL fluorescence polarization competition binding assay, A. baumannii PBP1a). Conditions: fluorescence polarization competition binding assay using Bocillin-FL; column 1; read-out: A. baumannii PBP1a Potency.
Sequence of A. baumannii PBP1a (A0ABX6CK30 entry or part of it): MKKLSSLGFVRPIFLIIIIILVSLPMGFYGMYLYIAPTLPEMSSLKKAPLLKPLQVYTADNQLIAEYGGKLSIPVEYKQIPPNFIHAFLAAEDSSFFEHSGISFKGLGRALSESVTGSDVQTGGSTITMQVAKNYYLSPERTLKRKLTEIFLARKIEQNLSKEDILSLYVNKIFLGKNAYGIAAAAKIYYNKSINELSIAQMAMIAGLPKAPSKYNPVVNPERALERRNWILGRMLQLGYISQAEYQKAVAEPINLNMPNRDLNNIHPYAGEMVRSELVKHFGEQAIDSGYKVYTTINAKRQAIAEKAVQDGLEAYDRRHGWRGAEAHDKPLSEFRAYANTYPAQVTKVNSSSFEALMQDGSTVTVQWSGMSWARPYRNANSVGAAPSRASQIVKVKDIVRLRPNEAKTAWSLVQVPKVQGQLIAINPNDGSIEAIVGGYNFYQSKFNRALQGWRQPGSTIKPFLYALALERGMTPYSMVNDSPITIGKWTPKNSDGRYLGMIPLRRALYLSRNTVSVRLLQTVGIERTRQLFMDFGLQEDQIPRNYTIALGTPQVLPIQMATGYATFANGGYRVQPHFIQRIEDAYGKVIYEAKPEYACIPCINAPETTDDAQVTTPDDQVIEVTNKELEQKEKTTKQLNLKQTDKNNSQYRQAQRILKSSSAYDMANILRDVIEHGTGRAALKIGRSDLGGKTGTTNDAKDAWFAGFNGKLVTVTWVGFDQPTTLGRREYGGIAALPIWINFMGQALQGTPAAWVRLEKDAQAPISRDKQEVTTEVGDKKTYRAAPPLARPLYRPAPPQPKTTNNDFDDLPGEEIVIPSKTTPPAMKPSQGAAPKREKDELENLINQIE

Compound | EC50
O=C(NCCCN1CCN(C(=O)NC(C(=O)N[C@H]2Cc3cccc(C(=O)O)c3OB2O)c2ncc(O)cc2F)C(=O)C1=O)c1ccc(O)c(O)c1Cl (stereo partly drawn) [Example 1, (3R)-3-(2-(4-(3-(2-chloro-3,4-dihydroxybenzamido)propyl)-2,3-dioxopiperazine-1-carboxamido)-2-(3-fluoro-5-hydroxypyridin-2-yl)acetamido)-2-hydroxy-3,4-dihydro-2H-benzo[e][1,2]oxaborinine-8-carboxylic acid] | 10 to 30 µM
C[C@H]1CN(CCNC(=O)c2ccc(O)c(O)c2Cl)C(=O)C(=O)N1C(=O)NC(C(=O)N[C@H]1Cc2cccc(C(=O)O)c2OB1O)c1ncc(O)cc1F (stereo partly drawn) [Example 2, (3R)-3-(2-((S)-4-(2-(2-chloro-3,4-dihydroxybenzamido)ethyl)-6-methyl-2,3-dioxopiperazine-1-carboxamido)-2-(3-fluoro-5-hydroxypyridin-2-yl)acetamido)-2-hydroxy-3,4-dihydro-2H-benzo[e][1,2]oxaborinine-8-carboxylic acid] | 10 to 30 µM
O=C(NCCN1CCN(C(=O)NC(C(=O)N[C@H]2Cc3ccc(F)c(C(=O)O)c3OB2O)c2ncc(O)cc2F)C(=O)C1=O)c1c(F)cc(O)c(O)c1Cl (stereo partly drawn) [Example 5, (3R)-3-(2-(4-(2-(2-chloro-6-fluoro-3,4-dihydroxybenzamido)ethyl)-2,3-dioxopiperazine-1-carboxamido)-2-(3-fluoro-5-hydroxypyridin-2-yl)acetamido)-7-fluoro-2-hydroxy-3,4-dihydro-2H-benzo[e][1,2]oxaborinine-8-carboxylic acid] | 10 to 30 µM

Each compound was assayed against T1, N. gonorrhoeae PBP2 (Neisseria gonorrhoeae, UniProt P08149) (assay: Bocillin-FL fluorescence polarization competition binding assay, N. gonorrhoeae PBP2). Conditions: fluorescence polarization competition binding assay using Bocillin-FL; read-out: N. gonorrhoeae PBP2 Potency.
T1 construct: made in house
T1 sequence (P08149 whole entry): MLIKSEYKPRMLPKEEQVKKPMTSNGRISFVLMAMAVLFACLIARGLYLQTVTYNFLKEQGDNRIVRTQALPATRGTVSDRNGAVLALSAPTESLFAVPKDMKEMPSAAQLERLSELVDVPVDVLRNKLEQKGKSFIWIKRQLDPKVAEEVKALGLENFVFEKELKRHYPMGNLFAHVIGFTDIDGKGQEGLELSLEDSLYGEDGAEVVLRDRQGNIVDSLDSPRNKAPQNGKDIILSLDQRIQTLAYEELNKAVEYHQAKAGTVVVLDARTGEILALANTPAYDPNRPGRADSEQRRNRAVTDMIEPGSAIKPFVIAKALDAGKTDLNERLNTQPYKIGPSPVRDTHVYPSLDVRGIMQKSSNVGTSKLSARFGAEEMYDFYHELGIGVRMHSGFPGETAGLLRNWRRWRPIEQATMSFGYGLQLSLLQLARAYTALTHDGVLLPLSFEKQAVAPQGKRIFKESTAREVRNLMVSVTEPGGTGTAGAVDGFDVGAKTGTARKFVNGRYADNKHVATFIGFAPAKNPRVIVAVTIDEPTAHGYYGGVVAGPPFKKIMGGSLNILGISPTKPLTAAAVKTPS
Method in brief: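 Fluorescence polarization (ex 490/em 520 nm) competition of inhibitors against Bocillin-FL at 0.1 μM, read up to 60 min. Final PBP levels: E. coli PBP3 1.5 μM; A. baumannii PBP2 2.5 μM, PBP3 0.2 μM in Tris pH 8.0/NaCl/glycerol/Tween 20; N. gonorrhoeae PBP2 […] in Hepes pH 8.0/NaCl/glycerol. EC50 = concentration halving PBP-bound Bocillin-FL.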

Compound | EC50
CCN1CCN(C(=O)NC(C(=O)N[C@H]2Cc3cccc(C(=O)O)c3OB2O)c2ccc(C(=O)O)c(Cl)c2Cl)C(=O)C1=O (stereo partly drawn) [Example 201, (3R)-3-(2-(4-carboxy-2,3-dichlorophenyl)-2-(4-ethyl-2,3-dioxopiperazine-1-carboxamido)acetamido)-2-hydroxy-3,4-dihydro-2H-benzo[e][1,2]oxaborinine-8-carboxylic acid] | 10 to 30 µM
NCCN1CCN(C(=O)N[C@H](C(=O)N[C@H]2Cc3cccc(C(=O)O)c3OB2O)c2ccc(O)c([N+](=O)[O-])c2)C(=O)C1=O (single isomer, unassigned) [Example 200] | > 100 µM
CCN1CCN(C(=O)NC(C(=O)N[C@H]2Cc3cccc(C(=O)O)c3OB2O)c2ccc(C(=O)O)c(O)c2)C(=O)C1=O (stereo partly drawn) [Example 196, (3R)-3-(2-(4-carboxy-3-hydroxyphenyl)-2-(4-ethyl-2,3-dioxopiperazine-1-carboxamido)acetamido)-2-hydroxy-3,4-dihydro-2H-benzo[e][1,2]oxaborinine-8-carboxylic acid] | < 10 µM
CCN1CCN(C(=O)NC(C(=O)N[C@H]2Cc3cccc(C(=O)O)c3OB2O)c2c(F)cc(NC(C)=O)cc2F)C(=O)C1=O (stereo partly drawn) [Example 188, (3R)-3-(2-(4-acetamido-2,6-difluorophenyl)-2-(4-ethyl-2,3-dioxopiperazine-1-carboxamido)acetamido)-2-hydroxy-3,4-dihydro-2H-benzo[e][1,2]oxaborinine-8-carboxylic acid] | < 10 µM
NCCN1CCN(C(=O)N[C@H](C(=O)N[C@H]2Cc3cccc(C(=O)O)c3OB2O)c2ccc(O)c(Cl)c2F)C(=O)C1=O (single isomer, unassigned) [Example 187] | 10 to 30 µM
CCN1CCN(C(=O)NC(C(=O)N[C@H]2Cc3cccc(C(=O)O)c3OB2O)c2ccc(O)c(Cl)c2F)C(=O)C1=O (stereo partly drawn) [Example 185, (3R)-3-(2-(3-chloro-2-fluoro-4-hydroxyphenyl)-2-(4-ethyl-2,3-dioxopiperazine-1-carboxamido)acetamido)-2-hydroxy-3,4-dihydro-2H-benzo[e][1,2]oxaborinine-8-carboxylic acid] | < 10 µM
CCN1CCN(C(=O)N[C@@H](C(=O)N[C@H]2Cc3cccc(C(=O)O)c3OB2O)c2ccc(C(=O)O)c(F)c2Cl)C(=O)C1=O (single isomer, unassigned) [Example 203] | < 10 µM
CCN1CCN(C(=O)NC(C(=O)N[C@H]2Cc3cccc(C(=O)O)c3OB2O)c2cc(C#N)c(OC)cc2F)C(=O)C1=O (stereo partly drawn) [Example 192, (3R)-3-(2-(5-cyano-2-fluoro-4-methoxyphenyl)-2-(4-ethyl-2,3-dioxopiperazine-1-carboxamido)acetamido)-2-hydroxy-3,4-dihydro-2H-benzo[e][1,2]oxaborinine-8-carboxylic acid] | 10 to 30 µM
NCCN1CCN(C(=O)N[C@@H](C(=O)N[C@H]2Cc3cccc(C(=O)O)c3OB2O)c2ccc(O)c([N+](=O)[O-])c2)C(=O)C1=O (single isomer, unassigned) [Example 199] | 10 to 30 µM
CCN1CCN(C(=O)N[C@H](C(=O)N[C@H]2Cc3cccc(C(=O)O)c3OB2O)c2ccc(C(=O)O)c(F)c2Cl)C(=O)C1=O (single isomer, unassigned) [Example 202] | > 100 µM
NCCN1CCN(C(=O)N[C@@H](C(=O)N[C@H]2Cc3cccc(C(=O)O)c3OB2O)c2ccc(O)c(Cl)c2F)C(=O)C1=O (single isomer, unassigned) [Example 186] | < 10 µM
O=C(O)c1cccc2c1OB(O)[C@@H](NC(=O)C(NC(=O)N1CCN(CC3CNC3)C(=O)C1=O)c1c(F)cc(O)cc1F)C2 (stereo partly drawn) [Example 193, (3R)-3-(2-(4-(azetidin-3-ylmethyl)-2,3-dioxopiperazine-1-carboxamido)-2-(2,6-difluoro-4-hydroxyphenyl)acetamido)-2-hydroxy-3,4-dihydro-2H-benzo[e][1,2]oxaborinine-8-carboxylic acid] | 10 to 30 µM
NCCCN1CCN(C(=O)N[C@@H](C(=O)N[C@H]2Cc3cccc(C(=O)O)c3OB2O)c2c(O)cc(O)cc2F)C(=O)C1=O (single isomer, unassigned) [Example 195] | 10 to 30 µM
CCN1CCN(C(=O)NC(C(=O)N[C@H]2Cc3cccc(C(=O)O)c3OB2O)c2cc([N+](=O)[O-])c(O)cc2F)C(=O)C1=O (stereo partly drawn) [Example 184, (3R)-3-(2-(4-ethyl-2,3-dioxopiperazine-1-carboxamido)-2-(2-fluoro-4-hydroxy-5-nitrophenyl)acetamido)-2-hydroxy-3,4-dihydro-2H-benzo[e][1,2]oxaborinine-8-carboxylic acid] | < 10 µM
NCCCN1CCN(C(=O)NC(C(=O)N[C@H]2Cc3cccc(C(=O)O)c3OB2O)c2c(F)cc(O)cc2F)C(=O)C1=O (stereo partly drawn) [Example 183, (3R)-3-(2-(4-(3-aminopropyl)-2,3-dioxopiperazine-1-carboxamido)-2-(2,6-difluoro-4-hydroxyphenyl)acetamido)-2-hydroxy-3,4-dihydro-2H-benzo[e][1,2]oxaborinine-8-carboxylic acid] | < 10 µM
NCCN1CCN(C(=O)N[C@@H](C(=O)N[C@H]2Cc3cccc(C(=O)O)c3OB2O)c2c(O)cc(O)cc2F)C(=O)C1=O (single isomer, unassigned) [Example 194] | 30 to 100 µM
